Data as given in patent US20050208139A1 (Ascend Therapeutics, Inc., priority 2004, published 2005).

Columns and labels:
[1] = Effects of isopropyl myristate, nature of the alcohol and alcohol/phosphate buffer ratio on isomerization (Example 2); type: physicochemical
Excerpt: The initial E/Z ratio was 63%/37%. • Reference solution: Gel formulation without the gelling agent KLUCEL • Solution II: Reference solution without Isopropyl myristate and containing ethanol • Solution III: Solution II with the ethanol replaced by Isopropyl alcohol • Solution IV: Solution II with the ethanol/buffer ratio of 50/50 instead of 66.5/33.5

[2] = Effects of UV light on isomerization (Example 4); type: physicochemical; settings: room temperature
[3] = system: human breast tumors grown subcutaneously in mice; settings: transdermally delivered; cited from earlier work
[4] = cited from earlier work
[5] = Isomerization of 4-hydroxy tamoxifen in hydroalcoholic solutions at 25°, 30° and 40° C., Z/E isomers by HPLC (Example 1); type: physicochemical
Procedure: Hydroalcoholic solutions containing 4-hydroxy tamoxifen were prepared, based on the following gel formula: […]
In the hydroalcoholic solutions, phosphate buffer was substituted for Klucel. The composition of the buffer was as follows:
At each of the stated concentrations, separate solutions containing Z-4-hydroxy tamoxifen or a mixture of Z- and E-4-hydroxy tamoxifen were prepared.
Each solution was subdivided into three parts in 30 ml brown glass bottles, then placed in ovens regulated at 25°, 30°, and 40° C.
The relative amounts of Z- and E-4-hydroxy tamoxifen isomers were determined at the initiation of the study and at 2-week, 1-month, 2-month, 3-month, 4-month and 5-month time points.
Operating parameters for the HPLC were as follows:
The order of elution was as follows: • 4-OHT E: retention time about 13.3 min • 4-OHT Z: retention time about 15.0 min.
Percentages of each isomer were calculated using the following formulas: [formula] [formula] D. Data fitting:
The reversible isomerization reaction and the equilibrium reaches are lied by the following relationship: [formula] where • A0=initial concentration of the reagent • Aeq=concentration of the same reagent at equilibrium • A=the concentration of A at time t • kf=forward rate constant • kr=reverse rate constant • t=time measured in months
A plot of log [formula] as a function of time gives a straight line fit with a slope of [formula] and a y-intercept of 0. E. Results

[6] = in vivo; cited from earlier work
[7] = 254 nm, T0, degradation impurity (phenanthrene derivative)

For CCC(=C(c1ccc(O)cc1)c1ccc(OCCN(C)C)cc1)c1ccccc1 [4-hydroxy tamoxifen, 1-[4-(2-N-dimethylaminoethoxy)phenyl]-1-(4-hydroxyphenyl)-2-phenylbut-1-ene], the “effect of replacing ethanol by isopropyl alcohol and eliminating the isopropyl myristate on the reversible kinetics” value ([1]; 0.06% solutions) was “no significant effect”, the “effect of increasing the aqueous vehicle (buffer) concentration from 33.5% to 50% on the rate constant” value ([1]; 25° C. and 30° C.) was “greatly increases the rate constant” and the “effect of increasing the aqueous vehicle (buffer) concentration from 33.5% to 50% on the rate constant” value ([1]; 40° C.) was “less pronounced”. The “dependence of the isomerization rate on the dielectric constant of the solvent medium” value ([1]; water concentration in the medium increases) was “increased as the dielectric constant of the solvent medium is increased”, the “% E” value ([2]; 254 nm, 5 min) was 3.0% and the “% Z” value ([2]; 254 nm, 5 min) was 91.5%. For the same compound, the “% imp 1” value ([2]; 254 nm, 5 min) was 0.0%, the “% imp 2” value ([2]; 254 nm, 5 min) was 5.5% and the “% E” value ([2]; 254 nm, 10 min) was 3.1%. The “% Z” value ([2]; 254 nm, 10 min) was 90.5%, the “% imp 1” value ([2]; 254 nm, 10 min) was 0.0% and the “% imp 2” value ([2]; 254 nm, 10 min) was 6.3%. The “% E” value ([2]; 254 nm, 15 min) was 3.5%, the “% Z” value ([2]; 254 nm, 15 min) was 86.5% and the “% imp 1” value ([2]; 254 nm, 15 min) was 1.3%. The “% imp 2” value ([2]; 254 nm, 15 min) was 8.7%, the “% E” value ([2]; 254 nm, 30 min) was 5.7% and the “% Z” value ([2]; 254 nm, 30 min) was 74.4%. The “% imp 1” value ([2]; 254 nm, 30 min) was 4.3%, the “% imp 2” value ([2]; 254 nm, 30 min) was 15.6% and the “% E” value ([2]; 254 nm, 45 min) was 6.7%. For the same compound, the “% Z” value ([2]; 254 nm, 45 min) was 65.1%, the “% imp 1” value ([2]; 254 nm, 45 min) was 7.8% and the “% imp 2” value ([2]; 254 nm, 45 min) was 20.4%. For the same compound, the “% E” value ([2]; 254 nm, 1 h) was 7.2%, the “% Z” value ([2]; 254 nm, 1 h) was 56.6% and the “% imp 1” value ([2]; 254 nm, 1 h) was 10.2%. The “% imp 2” value ([2]; 254 nm, 1 h) was 26.0%, the “% E” value ([2]; 254 nm, 1 h 15) was 7.5% and the “% Z” value ([2]; 254 nm, 1 h 15) was 52.7%. For the same compound, the “% imp 1” value ([2]; 254 nm, 1 h 15) was 11.4%, the “% imp 2” value ([2]; 254 nm, 1 h 15) was 28.4% and the “% E” value ([2]; 254 nm, 1 h 30) was 8.2%. For the same compound, the “% Z” value ([2]; 254 nm, 1 h 30) was 43.5%, the “% imp 1” value ([2]; 254 nm, 1 h 30) was 14.0% and the “% imp 2” value ([2]; 254 nm, 1 h 30) was 34.2%. The “% E” value ([2]; 254 nm, 1 h 45) was 8.2%, the “% Z” value ([2]; 254 nm, 1 h 45) was 38.2% and the “% imp 1” value ([2]; 254 nm, 1 h 45) was 16.5%. The “% imp 2” value ([2]; 254 nm, 1 h 45) was 37.1%, the “% E” value ([2]; 254 nm, 2 h) was 8.3% and the “% Z” value ([2]; 254 nm, 2 h) was 32.5%. For the same compound, the “% imp 1” value ([2]; 254 nm, 2 h) was 18.2%, the “% imp 2” value ([2]; 254 nm, 2 h) was 41.0% and the “% E” value ([2]; 254 nm, T0) was 1.7%. For the same compound, the “% Z” value ([2]; 254 nm, T0) was 98.3%, the “% imp 1” value [2, 7] was 0.0% and the “% imp 2” value [2, 7] was 0.0%. For the same compound, the “% E” value ([2]; 380 nm, 5 min) was 1.6%, the “% Z” value ([2]; 380 nm, 5 min) was 98.4% and the “% E” value ([2]; 380 nm, 10 min) was 1.7%. For the same compound, the “% Z” value ([2]; 380 nm, 10 min) was 98.3%, the “% E” value ([2]; 380 nm, 15 min) was 1.6% and the “% Z” value ([2]; 380 nm, 15 min) was 98.4%. The “% E” value ([2]; 380 nm, 30 min) was 1.8%, the “% Z” value ([2]; 380 nm, 30 min) was 98.2% and the “% E” value ([2]; 380 nm, 45 min) was 1.9%. For the same compound, the “% Z” value ([2]; 380 nm, 45 min) was 98.1%, the “% E” value ([2]; 380 nm, 1 h) was 2.0% and the “% Z” value ([2]; 380 nm, 1 h) was 98.0%. For the same compound, the “% E” value ([2]; 380 nm, 1 h 15) was 2.8%, the “% Z” value ([2]; 380 nm, 1 h 15) was 97.2% and the “% E” value ([2]; 380 nm, 1 h 30) was 2.9%. For the same compound, the “% Z” value ([2]; 380 nm, 1 h 30) was 97.1%, the “% E” value ([2]; 380 nm, 1 h 45) was 2.9% and the “% Z” value ([2]; 380 nm, 1 h 45) was 97.1%. For the same compound, the “% E” value ([2]; 380 nm, 2 h) was 3.3%, the “% Z” value ([2]; 380 nm, 2 h) was 96.7% and the “% E” value ([2]; 380 nm, T0) was 1.6%. The “% Z” value ([2]; 380 nm, T0) was 98.4%, the “isomerization process at 254 nm compared with 380 nm” value ([2]; UV light) was “faster than at 380 nm” and the “time in which the isomerization process can be observed under UV light” value [2] was 5 min. For the same compound, the anti-tumor effect [3] was “exhibits an anti-tumor effect”, the extent of isomerization ([4]; Katzenellenbogen et al., isomers initially 99% pure, after 2 days in tissue culture medium at 37° C.) was 20% and the “time within which spontaneous isomerization of Z- into E-4-hydroxy tamoxifen occurred” value ([4]; Malet et al.) was 24-48 h. For the same compound, the “magnitude of the rate constants for the reversible isomerism as nominal concentration varied from 0.02% to 0.10%” value [5] was “increased linearly” and the “distribution after percutaneous administration” value [6] was “can concentrate in local breast tumors, with very little systemic distribution”.
